Laboratory results published in patent US20240245617A1, “LIPID-BASED TOPICAL INJECTION FORMULATIONS” (Beijing Jitai Pharmaceutical Technology Co., Ltd., priority 2022, published 2024).

Columns and labels:
[1] = tested on: C57BL/6 mice; assay: In vivo bioluminescence after intravenous administration of lipid nanoparticles encapsulating luciferase mRNA; conditions: 0.5 mg/kg mRNA, liver
Description: The delivery effect and safety of nanoparticles encapsulating luciferase mRNA (Trilink, L-7202) in mice were evaluated. The test mice were SPF-grade C57BL/6 mice, female, 6-8 weeks old, weighing 18-22 g, and were purchased from SPF (Beijing) Biotechnology Co., Ltd. All animals were acclimatized for more than 7 days prior to the experiment, and had free access to food and water during the experiment. The conditions include alternating light and dark for 12/12 h, the indoor temperature of 20-26° C. and the humidity of 40-70%. The mice were randomly grouped. The lipid nanoparticles encapsulating luciferase mRNA prepared above were injected into mice by intravenous administration at a single dose of 0.5 mg/kg mRNA, and the mice were subjected to in vivo bioluminescence assay using a Small Animal In Vivo Imaging System (IVIS LUMINA III, purchased from PerkinElmer) at 6 h after administration. The assay was performed as follows: D-luciferin solution was prepared in saline at a concentration of 15 mg/mL, and each mouse was given the substrate by intraperitoneal injection. At ten minutes after administration of the substrate, the mice were anesthetized in an anesthesia chamber with isoflurane at a concentration of 2.5%. […] Data acquisition and analysis were performed on the liver.
The in vivo delivery efficiency of lipid nanoparticle carriers was expressed as the mean values of fluorescence intensity and total photon count in different animals within the same subject group, as shown in Table 4. Higher values of fluorescence intensity and total photon count indicate higher in vivo delivery efficiency of this mRNA fragment by lipid nanoparticles. The lipid nanoparticles containing the cationic lipids of the present disclosure have good in vivo delivery efficiency and mainly target the liver.

[2] = Particle size and PDI of lipid nanoparticles by dynamic light scattering; assay type: physicochemical; conditions: LNP ionizable lipid/cholesterol/DSPC/DMG-PEG2000 50/38.5/10/1.5 mol%, N/P 6, luciferase mRNA
Description: (§1) The particle size and particle size dispersity index (polydispersity index, PDI) of the prepared lipid nanoparticles were measured using a Zetasizer Pro (purchased from Malvern Instruments Ltd) and a DynaPro NanoStar (purchased from Wyatt) dynamic light scattering instrument. The degree of RNA encapsulation by lipid nanoparticles was characterized by the Encapsulation Efficiency %, which reflects the degree of binding of lipid nanoparticles to RNA fragments. This parameter was measured by the method of Quant-it™ RiboGreen RNA Assay (purchased from Invitrogen). Lipid nanoparticle samples were diluted in TE buffer (10 mM Tris-HCl, 1 mM EDTA, pH=7.5). A portion of the sample solution was removed, to which 0.5% Triton (Triton X-100) was added, and then allowed to stand at […] for 30 minutes. Immediately after the addition of RIBOGREEN® reaction solution, the fluorescence values were read on a Varioskan LUX multifunctional microplate reader (purchased from Thermofisher) at 485 nm for absorption and 528 nm for emission to give the encapsulation efficiency values.
The preparation of lipid nanoparticles includes microfluidic mixing system, but is not limited to this method, which also includes T-type mixer and ethanol injection method, etc.

[3] = Encapsulation efficiency of lipid nanoparticles, Quant-it RiboGreen RNA Assay; assay type: physicochemical; conditions: LNP ionizable lipid/cholesterol/DSPC/DMG-PEG2000 50/38.5/10/1.5 mol%, N/P 6, luciferase mRNA
Description: as §1
The produced lipid nanoparticles were characterized using the same method as in Assay example 2, and the results are shown in Table 6 (the percentage content of each component is represented by molar percentage).

| Particle size (nm) [2] [nm] | Particle size dispersity (PDI) [2] | Encapsulation efficiency (%) [3] [%] | SMILES | Total photon count in vivo at 6 hours after administration (Total Flux) [1] |
| --- | --- | --- | --- | --- |
| 80.98 | 0.05 | 86.92 | CCCCCCCCCSC(=O)C(C)(C)CCCCCC(CCCCCC(C)(C)C(=O)OCC#CC(CCCC)CCCC)OC(=O)CCCN(C)C (stereo not shown) [Compound 119] | 3.25E+10 |
| 103.57 | 0.06 | 93.62 | CCCCCCCCCSC(=O)C(C)(C)CCCCCC(CCCCCC(C)(C)C(=O)OCC#CCC(CCCC)CCCC)OC(=O)CCCN(C)C (stereo not shown) [Compound 121] | >4.00E+10 |
| 138.16 | 0.06 | 80.36 | CCCC/C=C\CCCCOC(=O)C(C)(C)CCCCCC(CCCCCC(C)(C)C(=O)OCCCC/C=C\CCCC)OC(=O)CCCN(C)C [Compound 28] | 3.21E+09 |
|  |  |  | CCCCCCCCCCCCNC(=O)C(C)(C)CCCCCC(CCCCCC(C)(C)C(=O)NCCCCCCCCCCCC)OC(=O)CCN(C)C [Compound 10] | 1.26E+09 |
|  |  |  | CCCCCCCCCCSC(=O)C(C)(C)CCCCCC(CCCCCC(C)(C)C(=O)SCCCCCCCCCC)OC(=O)CCCCCN(C)C [Compound 36] | 4.84E+09 |
|  |  |  | CCCCCCCCCCOC(=O)C(C)(C)CCCCCC(CCCCCC(C)(C)C(=O)OCCCCCCCCCC)OC(=O)CCN1CCCC1 [Compound 92] | 2.13E+09 |
|  |  |  | CCCCCCCCCSC(=O)C(C)(C)CCCCCC(CCCCCC(C)(C)C(=O)OCC(CCCCC)CCCCCCC)OC(=O)CC1CCN(C)CC1 (stereo not shown) [Compound 112] | 3.53E+10 |
|  |  |  | CCCCCCCCCN(CCCCCCCCC)C(=O)C(C)(C)CCCCCC(CCCCCC(C)(C)C(=O)N(CCCCCCCCC)CCCCCCCCC)OC(=O)CCN(C)C [Compound 12] | 1.10E+09 |
|  |  |  | CCCCCCCCCOC(=O)C(C)(C)CCCCCC(CCCCCC(C)(C)C(=O)OCCCCCCCCC)OC(=O)C1CCN(C)CC1 [Compound 102] | 2.03E+10 |
|  |  |  | CCCCCCCCCCOC(=O)C(C)(C)CCCCCC(CCCCCC(C)(C)C(=O)OCCCCCCCCCC)OC(=O)CN1CCOCC1 [Compound 91] | 1.29E+06 |
|  |  |  | CCCCCCCCCCNC(=O)C(C)(C)CCCCCC(CCCCCC(C)(C)C(=O)NCCCCCCCCCC)OC(=O)CCN(C)C [Compound 8] | 3.26E+07 |
|  |  |  | CCCCCCCCOC(=O)C(C)(C)CCCCCC(CCCCCC(C)(C)C(=O)OCCCCCCCC)OC(=O)C1CCN(C)CC1 [Compound 100] | 1.18E+10 |
|  |  |  | CCCCCCCCCOC(=O)C(C)(C)CCCCCC(CCCCCC(C)(C)C(=O)SCCCCCCCCC)OC(=O)CCCN(C)C (stereo not shown) [Compound 41] | 2.19E+10 |
|  |  |  | CCCCCCCCCOC(=O)CCCCCCC(CCCCCCC(=O)OCCCCCCCCC)OC(=O)CCCN(C)C [Compound 130] | 4.45E+07 |
|  |  |  | CCCCCCC(CCCCCC)CCOC(=O)CCC(C)(C)CCCC(CCCC(C)(C)CCC(=O)OCCC(CCCCCC)CCCCCC)OC(=O)CCCN(C)C [Compound 128] | 1.00E+10 |
|  |  |  | CCCCCCCCCCSC(=O)C(C)(C)CCCCCC(CCCCCC(C)(C)C(=O)OCCCCCCCCC)OC(=O)CCCN(C)C (stereo not shown) [Compound 40] | 4.22E+09 |
|  |  |  | CCCCCCCCCOC(=O)C(C)(C)CCCCCC(CCCCCC(C)(C)C(=O)OCCCCCCCCC)OC(=O)CCCCCN(C)C [Compound 32] | 7.30E+09 |
|  |  |  | CCCCCC/C=C\CCOC(=O)C(C)(C)CCCCCC(CCCCCC(C)(C)C(=O)OCC/C=C\CCCCCC)OC(=O)CCCN(C)C [Compound 27] | 2.20E+10 |
|  |  |  | CCCCCCCCCSC(=O)C(C)(C)CCCCCC(CCCCCC(C)(C)C(=O)SCCCCCCCCC)OC(=O)CC1CCN(C)CC1 [Compound 108] | 1.21E+10 |
